The source of these data is the OPERA property sets (Mansouri et al. 2018).

A word on the boiling point: it is the temperature at which the vapour pressure of the liquid equals the pressure above it. As a reminder, the melting point is the temperature, or range, at which the solid turns liquid.

`Cc1cc(N)ccc1N` gave a boiling point of 274 °C and a melting point of 64 °C.
With `CO[C@@H]1[C@H](OC(=O)/C=C/C=C/C=C/C=C/C(=O)O)CC[C@]2(CO2)[C@H]1[C@@]1(C)O[C@@H]1CC=C(C)C`, the melting point came to 194 °C.
Take `CC(=O)OCC(=O)[C@@]12OC(C)(C)O[C@@H]1C[C@H]1[C@@H]3C[C@H](F)C4=CC(=O)C=C[C@]4(C)[C@@]3(F)[C@@H](O)C[C@@]12C`: the melting point is 309 °C.
Still for that read-out and setting: with `CC1(C)C=CC=C(C(=O)O)C=C1` the figure was 88.5 °C.
As to `CCCCc1cccs1`, the boiling point came out at 182 °C.
Take `O=C(O)c1ccc(O)c(O)c1`: the ready biodegradability result was “readily biodegradable”.
With `C#CC(C)(C)N`, the boiling point was 79.5 °C and the melting point came out at 18 °C.
In turn, `CCCCOC(=O)CCC(=O)O` showed a melting point of 8.6 °C.
The compound `CC(C)=CCC[C@@H](C)[C@H]1CC[C@H]2[C@@H]3CC=C4C[C@@H](O)CC[C@]4(C)[C@H]3CC[C@]12C` showed a melting point of 122 °C.
With `C[C@H]1/C(=C\C(=O)OCCN(C)C)CC[C@H]2[C@H]1C(=O)C[C@H]1C(C)(C)[C@@H](O)CC[C@]21C`, the melting point amounted to 142 °C.
Regarding `CC1=C(C)C(=O)c2ccccc2C1=O`, the melting point was 127 °C.
Consider `C=CCOC(=O)OCC=C`, for which the boiling point was determined as 142 °C and the log10 vapour pressure (mmHg) was -0.991.
The compound `CCOCC(O)CO` (stereo not drawn) returned a boiling point of 222 °C.
On to `CCCCOS(=O)(=O)OCCCC`, for which the log10 vapour pressure (mmHg) is -1.93.
The compound `CN(C)c1ccccn1` showed a boiling point of 196 °C and a melting point of 182 °C.
`O=C(O)Cc1ccc(Br)cc1` showed a melting point of 116 °C.
Compound `CCN(CC)CCOC(=O)c1ccc(N)cc1Cl.Cl` returned a melting point of 177 °C.
Compound `CC=CCC(C)=O` registered a boiling point of 127 °C.
Consider `CCCCCCCCCCCCCCCCCC(=O)Nc1ccc(O)cc1`, for which the melting point worked out at 134 °C.
`C[C@H]1CC[C@]2(NC1)O[C@H]1C[C@H]3[C@@H]4CC[C@H]5C[C@@H](O)CC[C@]5(C)[C@H]4CC[C@]3(C)[C@H]1[C@@H]2C` came in with a melting point of 210 °C.
In the case of `Cc1c2ccccc2nc2ccccc12`, the melting point was 118 °C.
In turn, `O=C1CCN(c2ccccc2)N1` returned a melting point of 126 °C.
As for `C=C(Cl)CO`, the ready biodegradability result is on record as “readily biodegradable”.
Compound `O=C(O)CS(=O)(=O)O` showed a melting point of 85 °C.
In the case of `CCC(C)(CC)CC(C)C`, the boiling point is 161 °C.
`Oc1ccc(Cl)c2c1CCC2` registered a melting point of 92 °C.
As to `CCCCCCCCCCCCN(C)C`, the boiling point was determined as 260 °C, the melting point was 22 °C and the ready biodegradability result is on record as “readily biodegradable”.
In the case of `Clc1cc(-c2c(Cl)ccc(Cl)c2Cl)c(Cl)c(Cl)c1Cl`, the log10 Henry constant (atm·m³/mol) is -4.85.
`Clc1ccc(C(Cl)Cl)cc1Cl` yielded a boiling point of 257 °C.
`CC(=O)c1ccco1` showed a boiling point of 175 °C and a melting point of 33 °C.
Take `CCCCC1C(=O)NN(c2ccccc2)C1=O` (stereo not drawn): the melting point is 102 °C.
The compound `CC(C)(C)N=C=S` returned a boiling point of 140 °C and a melting point of 10.5 °C.
In turn, `CC(=O)[O-].[K+]` had a melting point of 292 °C.
For the compound `FC(F)OC(F)(F)C(F)Cl` (stereo not drawn), the boiling point is 56.5 °C.
`CC(C)CCCC(C)CCCC(C)CCCCC(C)CCCC(C)CCCC(C)C` (stereo not drawn): the boiling point was determined as 350 °C, the log10 biodegradation half-life (days) came out at 1.62 and the melting point was -38 °C.
On to `CC(C)C(C)(C)C(C)(C)C`, for which the boiling point turned out to be 166 °C and the melting point is -36.4 °C.
Consider `CCCCCCCCCCCCCCCC[N+](C)(C)CC.[Br-]`, for which the melting point worked out at 182 °C.
Take `CCCCCCCCCCCCCCCCCCCCCCCCC`: the boiling point was 402 °C, the log10 biodegradation half-life (days) was 2.08, the log10 vapour pressure (mmHg) is -5.82 and the melting point came out at 54 °C. In addition, the ready biodegradability entry was “readily biodegradable”.
As to `NS(=O)(=O)c1cc2c(cc1Cl)CN(C1CCCCC1)C2=O`, the melting point is 267 °C.
Regarding `OC1CCCCCCCCCCCCCC1`, the melting point came out at 80.5 °C.
For `CC(C)(C)c1ccc(Cl)cc1`, the boiling point was 213 °C.
In turn, `Oc1ccc2cccnc2c1` returned a melting point of 239 °C.
In turn, `O=C(O)CCCCCl` came in with a boiling point of 230 °C and a melting point of 18 °C.
In turn, `CN.Cl` showed a melting point of 228 °C.
`CCCN(CCC)c1c([N+](=O)[O-])cc(C(F)(F)F)c(N)c1[N+](=O)[O-]`: the log10 Koc (L/kg) came out at 4.11, the log10 vapour pressure (mmHg) is -7.61 and the melting point worked out at 124 °C.
In turn, `O=C(Nc1ccccc1)c1ccccc1` gave a melting point of 163 °C.
As to `CCCCC(=O)Cl`, the boiling point was 109 °C and the melting point was -110 °C.
The matching figures for `CCOC(=O)NCc1ccccc1`: 230 °C and 49 °C.
Consider `Cl[SiH2]c1ccccc1`, for which the boiling point came out at 162 °C.
Turning to `CCCC(CC)CC(C)C` (stereo not drawn), the boiling point was 158 °C.
Turning to `CCCCCCCCCI`, the log10 vapour pressure (mmHg) was -1.56.
As to `NS(=O)(=O)c1ccc(SCCCCO)cc1`, the melting point was 101 °C.
With `CN1CCC(CN2c3ccccc3Sc3ccccc32)C1` (stereo not drawn), the melting point was 87.5 °C.
As for `O=C1NC(=O)C2C3C(C(O)(c4ccccc4)c4ccccn4)=CC(C3=C(c3ccccc3)c3ccccn3)C12` (stereo not drawn), the melting point came out at 194 °C.
In turn, `CC(=O)CC(c1ccc(Cl)cc1)c1c(O)c2ccccc2oc1=O` (stereo not drawn) yielded a melting point of 169 °C.
The compound `CCC[C@H]1CCCCN1` returned a boiling point of 166 °C.
Regarding `CC(C)(N)Cc1ccccc1Cl`, the ready biodegradability result is reported as “not readily biodegradable”.
The compound `NCCCCCCCCCCC(=O)O` had a melting point of 191 °C.
`c1cncc([C@@H]2CCCN2)c1`: the boiling point turned out to be 270 °C and the ready biodegradability entry is “not readily biodegradable”.
On to `O=C(F)c1ccccc1`, for which the boiling point was 154 °C and the melting point was -28 °C.
In the case of `c1ccc2c(c1)C1c3ccccc3C2c2ccccc21`, the melting point was 254 °C.
Regarding `CC(C)CCCCO`, the boiling point is 170 °C.
As to `Fc1c(Cl)c(F)c(Cl)c(F)c1Cl`, the boiling point was determined as 198 °C.
`CC(=O)[O-].[Na+]` had a melting point of 324 °C.
In the case of `CCOc1ccc2c(c1)C(C)=CC(C)(C)N2`, the ready biodegradability entry was “not readily biodegradable”.
The compound `CC[C@@H](C(=O)[C@@H](C)[C@@H](O)[C@H](C)[C@@H]1O[C@@H]([C@@H](CC)C(=O)O)CC[C@@H]1C)[C@H]1O[C@]2(C=C[C@@H](O)[C@]3(CC[C@@](C)([C@H]4CC[C@](O)(CC)[C@H](C)O4)O3)O2)[C@H](C)C[C@@H]1C` displayed a melting point of 113 °C.
